The values below come from article PMC11997999, “Uncovering α-Selectivity for Liver X Receptor Agonists for Lipotoxic Cancer Therapies” (Journal of Medicinal Chemistry, 2025).

The target in one test is T1, LXRβ (Homo sapiens, UniProt P55055).
T1 construct: To measure the activity of the remaining isoform under treatment; endogenous in cells; host or cells: Hep3B (NR1H3 knockout, LXRE-GFP reporter)
T1 sequence (P55055 1-460): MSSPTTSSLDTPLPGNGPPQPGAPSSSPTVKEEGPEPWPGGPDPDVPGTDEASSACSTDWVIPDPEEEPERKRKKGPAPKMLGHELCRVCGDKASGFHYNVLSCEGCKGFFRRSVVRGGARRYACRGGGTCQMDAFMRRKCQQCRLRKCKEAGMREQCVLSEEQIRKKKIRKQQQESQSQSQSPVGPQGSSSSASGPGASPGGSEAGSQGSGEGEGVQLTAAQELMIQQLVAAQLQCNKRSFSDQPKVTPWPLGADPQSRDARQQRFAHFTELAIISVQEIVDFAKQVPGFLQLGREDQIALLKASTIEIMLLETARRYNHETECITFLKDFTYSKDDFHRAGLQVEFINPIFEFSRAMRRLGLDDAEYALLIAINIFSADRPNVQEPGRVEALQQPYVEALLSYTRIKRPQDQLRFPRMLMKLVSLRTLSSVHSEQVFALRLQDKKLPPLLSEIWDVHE
In words: LXRβ-specific LXRE-GFP reporter assay in Hep3B cells (NR1H3 knockout). It is filed as cell-based. The following applies: 48h of treatment, GFP by FACS.

The subject of a further test is Hep3B cells. In words: Cell viability analysis in Hep3B cells (CellTiter-Glo). The following applies: 5d. It is filed as cell-based, human. The protocol:
To determine the therapeutic efficacy of compound 40 in HCC cells, we next tested its effect on Hep3B cell viability in combination with the DFG-out Raf inhibitor sorafenib (2 μM).
For organoid treatment studies, digestion of organoids was performed using TrypLE Express (Gibco) supplemented with 100 μg/mL DNaseI and 10.5 μM Y-27632 dihydrochloride (Invitrogen) at 37 °C, and afterward, single-cells were plated in white 96 well plates (Sarstedt) in a mixture of 10% Matrigel (Growth Factor Reduced (GFR) Matrigel, Corning) in culture medium. Cell viability was determined after 5 days of treatment using the CellTiter-Glo 3D Cell Viability Assay Kit (Promega). Cell viability of Hep3B, AML12, and BNL CL.2 cells was determined after 5 days of treatment in white 96 well plates (Sarstedt) using the CellTiter-Glo 2.0 Cell Viability Assay Kit (Promega). AML12 and BNL CL.2 cells were also obtained from the American Type Culture Collection. The luminescence signal was measured using an […] M PLEX plate reader (Tecan) and the Tecan i-control software (v3.9.1). Sodium oleate (Selleckchem) was dissolved in methanol and added to cells at a final concentration of 200 μM.
In general terms: ATP-based viability assays read luminescence as a measure of living cells.

Test [1] concerns VDR, PPARα, PPARγ, ERα, ERβ, FXR, AhR, mCAR. In words: Nuclear receptor panel screening, luciferase reporter assays in HepG2 cells. It is filed as cell-based. The following applies: HepG2, 10 μM, 24 h. The protocol: To examine the specificity of compound 40 (and as a control compound 46) toward other nuclear receptors, we assessed their activity in activating eight critical nuclear receptors with cellular reporter assays at saturating concentrations (10 μM). We chose nuclear receptors that are either known to directly or indirectly regulate metabolic processes in the liver, including vitamin D receptor (VDR), peroxisome proliferator-activated receptors α and γ (PPAR α and γ), estrogen receptor α and β (ERα and β) and farnesoid X receptor (FXR) or are relevant in drug metabolism such as aryl hydrocarbon receptor (AhR) and the mice constitutive androstane receptor (mCAR).
For nuclear receptor panel screening, the HepG2 cell line (obtained by American Type Culture Collection) was maintained in DMEM (Gibco) supplemented with 10% FBS+ 1% nonessential amino acids medium and incubated at 37 °C. Plasmids for mouse constitutive androstane receptor (mCAR) and its luciferase gene reporter construct p2B6-luc have been described in Mejdrová et al.[24] Other luciferase reporter constructs have been described in Stefela et al.[25] The transient transfection experiments were performed on 48-well format plates 24 h after cell seeding (1.1 × 10^5 per well). The Lipofectamine 3000 transfection reagent was used according to the manufacturer’s instructions. […]
(A reporter such as luciferase makes a cellular process visible.)

Test [2] relates to SOD1, GADD34 and CHOP (GADD153). Put plainly: Western blot of oxidative stress and ER stress response factors in Hep3B cells. In kind it is cell-based, human. The following applies: 3 days, with 2 μM sorafenib. The protocol:
Proteins were extracted from cells using RIPA buffer, separated by SDS-PAGE, and transferred to PVDF membranes (Amersham Hybond ECL). For protein detection, membranes were incubated with antibodies against LXRα (Novus Biologicals, NBP2–17186, dilution: 1:1000), LXRβ (Cell Signaling Technology, 13519S, clone: D6M9D, dilution: 1:1000), CHOP (Cell Signaling, 2895 (L63F7), dilution: 1:1000), GADD34 (Proteintech, 10449–1-AP, dilution: 1:1000), SOD1 (ThermoFisher Scientific, MA1–105, clone: 8B10, dilution: 1:1000), α-tubulin (Cell Signaling, 2125 clone: 11H10, dilution: 1:5000), and vinculin (Sigma-Aldrich V9131, clone: hVIN-1, dilution: 1:5000) and visualized using the ChemiDoc MP imaging system (Bio-Rad, ImageLab v5.2.1).
For orientation: A western blot detects proteins with antibodies after separation by electrophoresis.

One may read the EC50 as the concentration at which the effect is half-maximal. Read a low EC50 as an effect from little substance. At LXRβ, `O=C1C(Nc2ccc(N3CCCCC3)cc2)=C(c2ccccc2)C(=O)N1Cc1ccccc1` [Compound 40, 1-Benzyl-3-phenyl-4-((4-(piperidin-1-yl)phenyl)amino)-1H-pyrrole-2,5-dione] returned a 50% effective concentration (EC50) of 0.631 µM. The “effect of sodium oleate on efficacy of the combination with sorafenib” value in the test on Hep3B cells (2 μM sorafenib ± 200 μM sodium oleate) is listed as “strongly diminished the therapeutic efficacy”. Moreover, in the test on Hep3B cells (without sorafenib), the “therapeutic effect on cell viability, monotherapy” value was “did not show a significant therapeutic effect”. Also, the “activation of eight other nuclear receptors” value in test [1] is “no relevant activation”. Besides, in test [2], the “induction of SOD1, GADD34 and CHOP” value is on record as “strong induction of all factors”.
